Assay results: ChEMBL document CHEMBL5649169 (ChemMedChem, 2018)

Experiments:
[1] = target: cAMP-dependent protein kinase catalytic subunit gamma (Homo sapiens) (UniProt P22612); note: assay method not described here
[2] = target: Histone acetyltransferase type B catalytic subunit (Homo sapiens) (UniProt O14929); note: assay method not described here
[3] = target: Heterogeneous nuclear ribonucleoprotein H3 (Homo sapiens) (UniProt P31942); note: assay method not described here
[4] = target: ATP synthase F(0) complex subunit k, mitochondrial (Homo sapiens) (UniProt Q96IX5); note: assay method not described here
[5] = target: DNA damage-binding protein 1 (Homo sapiens) (UniProt Q16531); note: assay method not described here
[6] = target: Sodium/potassium-transporting ATPase subunit beta-1 (Homo sapiens) (UniProt P05026); note: assay method not described here
[7] = target: Ribosomal protein S6 kinase alpha-3 (Homo sapiens) (UniProt P51812); note: assay method not described here
[8] = target: Isocitrate dehydrogenase [NADP], mitochondrial (Homo sapiens) (UniProt P48735); note: assay method not described here
[9] = target: Heterogeneous nuclear ribonucleoprotein D0 (Homo sapiens) (UniProt Q14103); note: assay method not described here
[10] = target: Importin-5 (Homo sapiens) (UniProt O00410); note: assay method not described here
[11] = target: Protein transport protein Sec23A (Homo sapiens) (UniProt Q15436); note: assay method not described here
[12] = target: Ubiquitin-like FUBI-ribosomal protein eS30 fusion protein (Homo sapiens) (UniProt P62861); note: assay method not described here
[13] = target: Chromodomain-helicase-DNA-binding protein 4 (Homo sapiens) (UniProt Q14839); note: assay method not described here
[14] = target: RuvB-like 1 (Homo sapiens) (UniProt Q9Y265); note: assay method not described here
[15] = target: Fibroblast growth factor receptor 1 (Homo sapiens) (UniProt P11362); note: assay method not described here
Cofilin-1 (Homo sapiens) = Cofilin-1 (Homo sapiens) (UniProt P23528)
[16] = target: Probable ATP-dependent RNA helicase DDX20 (Homo sapiens) (UniProt Q9UHI6); note: assay method not described here
[17] = target: Endoplasmic reticulum junction formation protein lunapark (Homo sapiens) (UniProt Q9C0E8); note: assay method not described here
[18] = target: ATP-dependent 6-phosphofructokinase, liver type (Homo sapiens) (UniProt P17858); note: assay method not described here
[19] = target: Threonine--tRNA ligase 1, cytoplasmic (Homo sapiens) (UniProt P26639); note: assay method not described here
[20] = target: Cytochrome c1, heme protein, mitochondrial (Homo sapiens) (UniProt P08574); note: assay method not described here
[21] = target: CDK-activating kinase assembly factor MAT1 (Homo sapiens) (UniProt P51948); note: assay method not described here
[22] = target: Serine/threonine-protein kinase 3 (Homo sapiens) (UniProt Q13188); note: assay method not described here
[23] = target: Large ribosomal subunit protein eL31 (Homo sapiens) (UniProt P62899); note: assay method not described here
[24] = target: UDP-glucose:glycoprotein glucosyltransferase 1 (Homo sapiens) (UniProt Q9NYU2); note: assay method not described here
[25] = target: Exportin-T (Homo sapiens) (UniProt O43592); note: assay method not described here
[26] = target: Tyrosine-protein kinase ABL1 (Homo sapiens, UniProt P00519); details: read-out: Kd(app)
[27] = target: Poly(U)-binding-splicing factor PUF60 (Homo sapiens) (UniProt Q9UHX1); note: assay method not described here
[28] = target: Splicing factor 3B subunit 1 (Homo sapiens) (UniProt O75533); note: assay method not described here
[29] = target: Importin subunit beta-1 (Homo sapiens) (UniProt Q14974); note: assay method not described here
Titin (Homo sapiens) = Titin (Homo sapiens) (UniProt Q8WZ42)
[30] = target: High affinity nerve growth factor receptor (Homo sapiens) (UniProt P04629); note: assay method not described here
[31] = target: Calcium/calmodulin-dependent protein kinase type IV (Homo sapiens) (UniProt Q16566); note: assay method not described here
[32] = target: Mitochondrial import inner membrane translocase subunit TIM50 (Homo sapiens) (UniProt Q3ZCQ8); note: assay method not described here
[33] = target: Tyrosine-protein kinase Tec (Homo sapiens) (UniProt P42680); note: assay method not described here
[34] = target: Heat shock 70 kDa protein 4 (Homo sapiens) (UniProt P34932); note: assay method not described here
[35] = target: Eukaryotic translation initiation factor 3 subunit H (Homo sapiens) (UniProt O15372); note: assay method not described here
[36] = target: ATP synthase F(0) complex subunit g, mitochondrial (Homo sapiens) (UniProt O75964); note: assay method not described here
[37] = target: Serine/threonine-protein kinase PLK4 (Homo sapiens) (UniProt O00444); note: assay method not described here
[38] = target: 26S proteasome non-ATPase regulatory subunit 1 (Homo sapiens) (UniProt Q99460); note: assay method not described here
[39] = target: Protein RCC2 (Homo sapiens) (UniProt Q9P258); note: assay method not described here
[40] = target: Serine/threonine-protein kinase Nek2 (Homo sapiens) (UniProt P51955); note: assay method not described here
[41] = target: Transcription factor A, mitochondrial (Homo sapiens) (UniProt Q00059); note: assay method not described here
[42] = target: V-type proton ATPase subunit G 1 (Homo sapiens) (UniProt O75348); note: assay method not described here
[43] = target: Glutathione reductase, mitochondrial (Homo sapiens) (UniProt P00390); note: assay method not described here
Throughout, for ED50: assay method not described here.

Chain of Splicing factor 3B subunit 1 (Homo sapiens) (O75533 whole entry): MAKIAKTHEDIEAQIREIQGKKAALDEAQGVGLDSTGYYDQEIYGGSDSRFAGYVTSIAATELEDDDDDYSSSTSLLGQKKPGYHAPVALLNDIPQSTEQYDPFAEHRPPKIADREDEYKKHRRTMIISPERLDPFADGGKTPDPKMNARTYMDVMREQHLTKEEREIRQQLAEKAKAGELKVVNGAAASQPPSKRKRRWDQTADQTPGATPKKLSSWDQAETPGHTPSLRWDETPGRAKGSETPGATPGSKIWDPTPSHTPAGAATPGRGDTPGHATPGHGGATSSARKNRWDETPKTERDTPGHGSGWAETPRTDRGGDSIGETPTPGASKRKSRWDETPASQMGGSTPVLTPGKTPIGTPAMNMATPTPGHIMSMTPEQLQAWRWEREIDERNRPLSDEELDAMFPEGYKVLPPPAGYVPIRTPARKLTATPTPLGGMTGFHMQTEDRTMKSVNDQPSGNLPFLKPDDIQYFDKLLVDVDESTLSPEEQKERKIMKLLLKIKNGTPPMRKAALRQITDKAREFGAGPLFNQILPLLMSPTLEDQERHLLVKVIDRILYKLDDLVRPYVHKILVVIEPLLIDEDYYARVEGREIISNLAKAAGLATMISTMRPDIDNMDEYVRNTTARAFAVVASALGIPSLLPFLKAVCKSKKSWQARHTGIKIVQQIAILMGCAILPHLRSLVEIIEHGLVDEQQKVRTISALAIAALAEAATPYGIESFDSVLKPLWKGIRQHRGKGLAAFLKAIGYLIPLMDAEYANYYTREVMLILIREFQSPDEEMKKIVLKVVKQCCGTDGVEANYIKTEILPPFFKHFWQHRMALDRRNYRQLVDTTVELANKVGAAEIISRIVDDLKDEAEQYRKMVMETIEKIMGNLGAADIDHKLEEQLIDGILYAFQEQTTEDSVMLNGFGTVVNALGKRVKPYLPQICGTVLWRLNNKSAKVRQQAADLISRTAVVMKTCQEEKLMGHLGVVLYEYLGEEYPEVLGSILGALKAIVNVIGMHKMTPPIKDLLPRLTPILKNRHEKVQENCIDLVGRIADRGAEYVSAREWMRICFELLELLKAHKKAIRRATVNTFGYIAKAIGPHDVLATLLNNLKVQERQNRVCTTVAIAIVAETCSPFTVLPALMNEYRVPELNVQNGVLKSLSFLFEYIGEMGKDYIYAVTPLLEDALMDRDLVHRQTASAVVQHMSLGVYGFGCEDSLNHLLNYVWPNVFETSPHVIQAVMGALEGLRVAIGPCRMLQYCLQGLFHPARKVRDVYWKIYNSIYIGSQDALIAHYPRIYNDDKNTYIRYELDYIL
Chain of ATP synthase F(0) complex subunit g, mitochondrial (Homo sapiens) (O75964 whole entry, one chain of several): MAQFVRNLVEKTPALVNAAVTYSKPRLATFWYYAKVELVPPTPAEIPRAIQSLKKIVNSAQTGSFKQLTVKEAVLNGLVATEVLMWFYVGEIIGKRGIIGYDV
Chain of Importin subunit beta-1 (Homo sapiens) (Q14974 whole entry): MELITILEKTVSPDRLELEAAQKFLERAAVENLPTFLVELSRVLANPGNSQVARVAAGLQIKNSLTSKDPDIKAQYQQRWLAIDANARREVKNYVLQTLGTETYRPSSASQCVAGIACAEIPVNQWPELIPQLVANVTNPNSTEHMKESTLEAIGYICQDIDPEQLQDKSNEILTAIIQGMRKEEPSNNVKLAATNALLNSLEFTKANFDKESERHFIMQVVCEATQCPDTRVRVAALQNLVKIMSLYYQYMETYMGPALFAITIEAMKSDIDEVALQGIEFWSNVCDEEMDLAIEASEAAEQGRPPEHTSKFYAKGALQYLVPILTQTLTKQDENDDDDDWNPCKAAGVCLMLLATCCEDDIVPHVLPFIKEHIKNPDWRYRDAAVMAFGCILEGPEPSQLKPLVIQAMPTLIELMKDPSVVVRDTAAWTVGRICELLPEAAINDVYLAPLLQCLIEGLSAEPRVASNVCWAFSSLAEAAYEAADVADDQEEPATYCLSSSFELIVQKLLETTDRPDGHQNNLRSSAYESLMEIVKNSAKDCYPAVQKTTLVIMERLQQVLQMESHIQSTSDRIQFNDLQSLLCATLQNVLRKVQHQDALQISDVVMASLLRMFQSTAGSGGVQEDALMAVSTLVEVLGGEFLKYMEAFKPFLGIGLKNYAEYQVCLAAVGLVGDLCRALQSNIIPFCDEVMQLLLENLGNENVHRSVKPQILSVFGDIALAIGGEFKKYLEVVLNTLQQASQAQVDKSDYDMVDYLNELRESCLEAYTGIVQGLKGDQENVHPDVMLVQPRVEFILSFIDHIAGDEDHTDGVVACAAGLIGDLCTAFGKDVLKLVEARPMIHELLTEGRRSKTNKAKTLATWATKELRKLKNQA
Chain of Serine/threonine-protein kinase PLK4 (Homo sapiens) (O00444 whole entry): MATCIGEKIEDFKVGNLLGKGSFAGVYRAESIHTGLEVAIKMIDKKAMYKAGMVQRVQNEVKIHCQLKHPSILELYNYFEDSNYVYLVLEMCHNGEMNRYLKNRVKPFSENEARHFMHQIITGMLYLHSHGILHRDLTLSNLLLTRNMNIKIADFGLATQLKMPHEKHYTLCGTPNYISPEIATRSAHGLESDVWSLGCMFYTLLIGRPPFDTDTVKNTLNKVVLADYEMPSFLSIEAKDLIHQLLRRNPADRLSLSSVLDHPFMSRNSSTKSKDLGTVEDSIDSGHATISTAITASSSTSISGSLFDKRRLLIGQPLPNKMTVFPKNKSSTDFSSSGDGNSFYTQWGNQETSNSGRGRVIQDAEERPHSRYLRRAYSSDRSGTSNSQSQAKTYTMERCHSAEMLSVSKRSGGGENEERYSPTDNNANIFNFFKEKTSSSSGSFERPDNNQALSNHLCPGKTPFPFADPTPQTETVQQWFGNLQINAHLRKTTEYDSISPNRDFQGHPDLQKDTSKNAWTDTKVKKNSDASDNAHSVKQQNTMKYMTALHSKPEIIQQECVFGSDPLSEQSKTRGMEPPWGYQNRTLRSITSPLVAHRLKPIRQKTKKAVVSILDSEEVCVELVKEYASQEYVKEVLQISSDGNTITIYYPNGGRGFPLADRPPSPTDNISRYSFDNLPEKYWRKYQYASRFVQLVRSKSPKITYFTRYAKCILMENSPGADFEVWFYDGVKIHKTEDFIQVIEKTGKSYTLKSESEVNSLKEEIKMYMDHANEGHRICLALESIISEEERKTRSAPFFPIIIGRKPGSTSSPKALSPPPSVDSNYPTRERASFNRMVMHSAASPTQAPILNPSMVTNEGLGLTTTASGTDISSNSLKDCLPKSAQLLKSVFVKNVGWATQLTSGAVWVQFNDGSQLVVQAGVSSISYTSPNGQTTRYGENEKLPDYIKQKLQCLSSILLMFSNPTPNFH
Chain of Serine/threonine-protein kinase Nek2 (Homo sapiens) (P51955 whole entry): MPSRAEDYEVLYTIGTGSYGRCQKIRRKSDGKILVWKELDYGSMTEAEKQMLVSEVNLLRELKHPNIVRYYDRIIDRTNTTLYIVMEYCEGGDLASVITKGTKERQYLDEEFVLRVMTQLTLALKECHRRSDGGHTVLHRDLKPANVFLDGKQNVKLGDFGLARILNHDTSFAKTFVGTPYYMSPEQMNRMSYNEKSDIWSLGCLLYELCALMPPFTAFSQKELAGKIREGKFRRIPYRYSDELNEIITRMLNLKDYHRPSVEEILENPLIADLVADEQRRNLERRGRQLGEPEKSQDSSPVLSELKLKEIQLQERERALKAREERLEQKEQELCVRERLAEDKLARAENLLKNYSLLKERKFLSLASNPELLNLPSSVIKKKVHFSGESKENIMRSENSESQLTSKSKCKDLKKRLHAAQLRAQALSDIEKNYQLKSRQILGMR
Chain of Eukaryotic translation initiation factor 3 subunit H (Homo sapiens) (O15372 whole entry): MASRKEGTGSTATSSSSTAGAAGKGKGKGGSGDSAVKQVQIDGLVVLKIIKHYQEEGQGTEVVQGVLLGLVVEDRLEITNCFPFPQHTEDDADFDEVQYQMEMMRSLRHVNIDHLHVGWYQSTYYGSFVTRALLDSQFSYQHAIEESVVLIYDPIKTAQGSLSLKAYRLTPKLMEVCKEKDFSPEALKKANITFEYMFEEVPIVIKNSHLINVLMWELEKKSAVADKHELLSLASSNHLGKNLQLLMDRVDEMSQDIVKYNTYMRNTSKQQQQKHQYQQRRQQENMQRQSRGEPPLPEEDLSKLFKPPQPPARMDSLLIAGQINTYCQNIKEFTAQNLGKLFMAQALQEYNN
Chain of Tyrosine-protein kinase Tec (Homo sapiens) (P42680 whole entry): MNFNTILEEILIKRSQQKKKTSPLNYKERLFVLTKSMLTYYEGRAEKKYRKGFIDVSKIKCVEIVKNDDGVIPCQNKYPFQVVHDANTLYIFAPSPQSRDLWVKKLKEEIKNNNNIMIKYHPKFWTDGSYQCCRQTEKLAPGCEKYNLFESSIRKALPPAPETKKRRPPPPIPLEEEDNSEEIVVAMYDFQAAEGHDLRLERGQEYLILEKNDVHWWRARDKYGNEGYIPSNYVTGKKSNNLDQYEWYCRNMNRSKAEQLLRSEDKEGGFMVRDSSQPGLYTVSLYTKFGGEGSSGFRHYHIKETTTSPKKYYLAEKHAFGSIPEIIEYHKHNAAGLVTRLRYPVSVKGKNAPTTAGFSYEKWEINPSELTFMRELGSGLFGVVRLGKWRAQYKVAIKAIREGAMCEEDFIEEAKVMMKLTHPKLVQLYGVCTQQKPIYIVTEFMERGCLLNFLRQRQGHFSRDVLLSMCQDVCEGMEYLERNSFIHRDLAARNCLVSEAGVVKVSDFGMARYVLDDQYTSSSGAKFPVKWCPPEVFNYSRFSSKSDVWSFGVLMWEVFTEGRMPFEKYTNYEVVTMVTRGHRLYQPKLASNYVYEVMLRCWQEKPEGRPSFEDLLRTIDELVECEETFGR
Chain of Heterogeneous nuclear ribonucleoprotein D0 (Homo sapiens) (Q14103 whole entry): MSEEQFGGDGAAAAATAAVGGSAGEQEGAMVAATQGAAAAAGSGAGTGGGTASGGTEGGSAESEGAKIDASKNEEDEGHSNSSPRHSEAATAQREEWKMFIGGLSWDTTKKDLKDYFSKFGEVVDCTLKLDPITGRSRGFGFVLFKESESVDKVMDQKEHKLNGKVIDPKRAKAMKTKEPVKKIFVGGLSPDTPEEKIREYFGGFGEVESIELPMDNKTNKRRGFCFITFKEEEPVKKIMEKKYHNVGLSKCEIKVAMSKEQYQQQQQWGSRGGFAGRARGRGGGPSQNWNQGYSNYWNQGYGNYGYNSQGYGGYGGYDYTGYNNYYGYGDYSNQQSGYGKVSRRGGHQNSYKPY

## Cc1ccc(C(=O)Nc2cccc(C(F)(F)F)c2)cc1Nc1nc(-c2cccnc2)nc2nn(C)cc12
[1]
  ED50: 137 nM
[2]
  ED50: 52.6 nM
[3]
  ED50: 17100 nM
[4]
  ED50: 81.2 nM
[5]
  ED50: 139 nM
[6]
  ED50: 33.5 nM
[7]
  ED50: 7920 nM
[8]
  ED50: 16800 nM
[9]
  ED50: 26.7 nM
[10]
  ED50: 342 nM
[11]
  ED50: 4910 nM
[12]
  ED50: 12400 nM
[13]
  ED50: 615 nM
[14]
  ED50: 8410 nM
[15]
  ED50: 52.6 nM
Cofilin-1 (Homo sapiens)
  ED50: 62.4 nM
[16]
  ED50: 28.5 nM
[17]
  ED50: 287 nM
[18]
  ED50: 33.8 nM
[19]
  ED50: 57.6 nM
[20]
  ED50: 29.3 nM
[21]
  ED50: 3400 nM
Homo sapiens
  ED50: 39200 nM
[22]
  ED50: 9320 nM
[23]
  ED50: 4.49 nM
[24]
  ED50: 43.5 nM
[25]
  ED50: 29.9 nM
[26]
  Kd: 732 nM
[27]
  ED50: 5.83 nM
[28]
  ED50: 3000 nM
[29]
  ED50: 53.4 nM
Titin (Homo sapiens)
  ED50: 12.6 nM
[30]
  ED50: 773 nM
[31]
  ED50: 2780 nM
[32]
  ED50: 1850 nM
[33]
  ED50: 28.9 nM
[34]
  ED50: 77.7 nM
[35]
  ED50: 179 nM
[36]
  ED50: 214 nM
[37]
  ED50: 4340 nM
[38]
  ED50: 4320 nM
[39]
  ED50: 37900 nM
[40]
  ED50: 324 nM
[41]
  ED50: 48.7 nM
[42]
  ED50: 9380 nM
[43]
  ED50: 24700 nM

## Cc1ccc(C(=O)Nc2cccc(C(F)(F)F)c2)cc1Nc1nc(-c2cccnc2)nc2c1cnn2C
[1]
  ED50: 1230 nM
[2]
  ED50: 183 nM
[3]
  ED50: 5.13 nM
[4]
  ED50: 128000 nM
[5]
  ED50: 122 nM
[6]
  ED50: 53.6 nM
[7]
  ED50: 5.28 nM
[8]
  ED50: 1.87 nM
[9]
  ED50: 1150 nM
[10]
  ED50: 4.45 nM
[11]
  ED50: 4180 nM
[12]
  ED50: 562 nM
[13]
  ED50: 1.89 nM
[14]
  ED50: 4250 nM
[15]
  ED50: 11200 nM
Cofilin-1 (Homo sapiens)
  ED50: 7300 nM
[16]
  ED50: 616 nM
[17]
  ED50: 15500 nM
[18]
  ED50: 111000 nM
[19]
  ED50: 5.31 nM
[20]
  ED50: 0.55 nM
[21]
  ED50: 9.72 nM
Homo sapiens
  ED50: 7040 nM
[22]
  ED50: 14200 nM
[23]
  ED50: 14900 nM
[24]
  ED50: 54500 nM
[25]
  ED50: 1220 nM
[26]
  Kd: 910 nM
[27]
  ED50: 11000 nM
[28]
  ED50: 2850 nM
[29]
  ED50: 3710 nM
Titin (Homo sapiens)
  ED50: 52.2 nM
[30]
  ED50: 16.9 nM
[31]
  ED50: 2340 nM
[32]
  ED50: 3590 nM
[33]
  ED50: 31.1 nM
[34]
  ED50: 3180 nM
[35]
  ED50: 1400 nM
[36]
  ED50: 2640 nM
[37]
  ED50: 174 nM
[38]
  ED50: 13.8 nM
[39]
  ED50: 92200 nM
[40]
  ED50: 11 nM
[41]
  ED50: 17000 nM
[42]
  ED50: 501000 nM
[43]
  ED50: 8810 nM
